Assay results taken from PubChem BioAssay (NCI).
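At the GI50, growth is halved. At the TGI there is no net growth.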

What was measured:
Experiment in all cases: NCI-60 cell line screen, 384-well format
[1] = system: A498 renal
[2] = system: COLO 205 colon
[3] = system: TK-10 renal
[4] = system: HCT-15 colon
[5] = system: T-47D breast
[6] = system: HCT-116 colon
[7] = system: PC-3 prostate
[8] = system: HL-60(TB) leukemia
[9] = system: ACHN renal
[10] = system: K-562 leukemia
[11] = system: UACC-257 melanoma
[12] = system: 786-0 renal
[13] = system: SK-OV-3 ovarian
[14] = system: SF-268 CNS
[15] = system: OVCAR-8 ovarian
[16] = system: MDA-MB-435 melanoma
[17] = system: HOP-92 NSCLC
[18] = system: RXF 393 renal
[19] = system: RPMI-8226 leukemia
[20] = system: NCI/ADR-RES ovarian
[21] = system: KM12 colon
[22] = system: SK-MEL-28 melanoma
[23] = system: SW-620 colon
[24] = system: HOP-62 NSCLC
[25] = system: SR leukemia
[26] = system: U251 glioblastoma
[27] = system: NCI-H522 lung
[28] = system: NCI-H460 NSCLC
[29] = system: SF-539 CNS

Cc1c(COc2cc(OCc3cccc(C#N)c3)c(CN3C[C@H](O)C[C@@H]3C(=O)O)cc2Cl)cccc1-c1ccc2c(c1)OCCO2
TGI [1]: 11.7 µM
GI50 [2]: 4.51 µM
TGI [2]: 14.6 µM
GI50 [3]: 3.11 µM
TGI [3]: 9.29 µM
GI50 [4]: 4.4 µM
TGI [4]: 14.8 µM
GI50 [5]: 2.97 µM
TGI [5]: 12.9 µM
GI50 [6]: 2.81 µM
TGI [6]: 7.43 µM
GI50 [7]: 3.58 µM
TGI [7]: 10.3 µM
GI50 [8]: 2.1 µM
TGI [8]: 3.54 µM
GI50 [9]: 10.4 µM
TGI [9]: 22.3 µM
GI50 [10]: 3.46 µM
TGI [10]: 12.1 µM
GI50 [11]: 2.63 µM
TGI [11]: 8.02 µM
GI50 [12]: 3.82 µM
TGI [12]: 13.7 µM
GI50 [13]: 5.17 µM
TGI [13]: 16.3 µM
GI50 [14]: 3.98 µM
TGI [14]: 14.5 µM
GI50 [15]: 4.21 µM
TGI [15]: 15.5 µM
GI50 [16]: 4.35 µM
TGI [16]: 14.2 µM
GI50 [17]: 2.4 µM
TGI [17]: 6 µM
GI50 [18]: 1.41 µM
TGI [18]: 3.5 µM
GI50 [19]: 1.67 µM
TGI [19]: 3.04 µM
GI50 [20]: 77.7 µM
TGI [20]: > 100 µM
GI50 [21]: 3.38 µM
TGI [21]: 10.9 µM
GI50 [22]: 2.71 µM
TGI [22]: 7.55 µM
GI50 [23]: 5.44 µM
TGI [23]: 17 µM
GI50 [24]: 3.97 µM
TGI [24]: 15.4 µM
GI50 [25]: 1.69 µM
TGI [25]: 3.06 µM
GI50 [26]: 3.38 µM
TGI [26]: 10.6 µM
GI50 [27]: 2.73 µM
TGI [27]: 9.61 µM
GI50 [28]: 3.45 µM
TGI [28]: 12.4 µM
GI50 [29]: 3.25 µM
TGI [29]: 11.6 µM
